In patent US20210198204A1, “PRODRUGS OF KALLIKREIN INHIBITORS” (BioCryst Pharmaceuticals, Inc., priority 2016, published 2021):

Assay: Plasma pharmacokinetics of the parent compound after a single oral dose of prodrug
Assay type: in vivo
Settings: single oral dose 10 mg/kg, fasted male Sprague Dawley rats; plasma analyzed for the parent compound; study duration 8 h
How it was run: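 Three male Sprague Dawley rats, housed in metabolic cages and fasted about 15 hours, were weighed and received one oral gavage dose of 10 mg/kg as a solution in water or water/propylene glycol. Blood (approximately 500 μL) went into heparin tubes at set timepoints up to the study duration. Plasma was separated by centrifugation at 14,000 rpm for 3 min at 4° C, stored below −70° C, and assayed for the parent compound.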
With `C=Cc1cc(C(=O)Nc2ccc(C(=N)NC(=O)OCCCCCC)cc2)c(-c2ccc(C(=O)NCC3CC3)nc2C(=O)OC(C)OC(=O)N[C@H](C(=O)OCC)[C@@H](C)CC)cc1OC` (stereo partly drawn) [Compound 91d, 1-((((2S,3S)-1-ethoxy-3-methyl-1-oxopentan-2-yl)carbamoyl)oxy)ethyl 6-((cyclopropylmethyl)carbamoyl)-3-(2-((4-(N-((hexyloxy)carbonyl)carbamimidoyl)phenyl)carbamoyl)-5-methoxy-4-vinylphenyl)picolinate] the “AUC0-last hour (area under the curve)” value was “A (A = 0-1,000 ng/mL)”.
For `C=Cc1cc(C(=O)Nc2ccc(C(=N)NC(=O)OCCC[C@H](O)C(=O)O)cc2)c(-c2ccc(C(=O)NCC3CC3)nc2C(=O)OC(C)OC(=O)C(C)C)cc1OC` (stereo partly drawn) [Compound 92a, (2S)-5-((((4-(2-(6-((cyclopropylmethyl)carbamoyl)-2-((1-(isobutyryloxy)ethoxy)carbonyl)pyridin-3-yl)-4-methoxy-5-vinylbenzamido)phenyl)(imino)methyl)carbamoyl)oxy)-2-hydroxypentanoic acid], the “AUC0-last hour (area under the curve)” value was “A (A = 0-1,000 ng/mL)”.
With `C=Cc1cc(C(=O)Nc2ccc(C(=N)NC(=O)OCCCCCO)cc2)c(-c2ccc(C(=O)NCC3CC3)nc2C(=O)OC(C)OC(=O)C(C)C)cc1OC` (stereo not drawn) [Compound 94e, 1-(isobutyryloxy)ethyl 6-((cyclopropylmethyl)carbamoyl)-3-(2-((4-(N-(((5-hydroxypentyl)oxy)carbonyl)carbamimidoyl)phenyl)carbamoyl)-5-methoxy-4-vinylphenyl)picolinate] the “AUC0-last hour (area under the curve)” value was “B (B = 1,001-10,000 ng/mL)”.
With `C=Cc1cc(C(=O)Nc2ccc(C(=N)NC(=O)OC(C)CO)cc2)c(-c2ccc(C(=O)NCC3CC3)nc2C(=O)OC(C)OC(=O)OC(C)C)cc1OC` (stereo not drawn) [Compound 95e, 1-((isopropoxycarbonyl)oxy)ethyl 6-((cyclopropylmethyl)carbamoyl)-3-(2-((4-(N-(((1-hydroxypropan-2-yl)oxy)carbonyl)carbamimidoyl)phenyl)carbamoyl)-5-methoxy-4-vinylphenyl)picolinate] the “AUC0-last hour (area under the curve)” value was “B (B = 1,001-10,000 ng/mL)”.
With `C=Cc1cc(C(=O)Nc2ccc(C(=N)NC(=O)OCCN3CCOCC3)cc2)c(-c2ccc(C(=O)NCC3CC3)nc2C(=O)OC(C)OC(=O)[C@@H](N)C(C)C)cc1OC` (stereo partly drawn) [Compound 96d, 1-(((S)-2-amino-3-methylbutanoyl)oxy)ethyl 6-((cyclopropylmethyl)carbamoyl)-3-(5-methoxy-2-((4-(N-((2-morpholinoethoxy)carbonyl)carbamimidoyl)phenyl)carbamoyl)-4-vinylphenyl)picolinate] the “AUC0-last hour (area under the curve)” value was “A (A = 0-1,000 ng/mL)”.
For `C=Cc1cc(C(=O)Nc2ccc(C(=N)NC(=O)OC(C)CN)cc2)c(-c2ccc(C(=O)NCC3CC3)nc2C(=O)OC(C)OC(=O)OC(C)C)cc1OC` (stereo not drawn) [Compound 97e, 1-((isopropoxycarbonyl)oxy)ethyl 3-(2-((4-(N-(((1-aminopropan-2-yl)oxy)carbonyl)carbamimidoyl)phenyl)carbamoyl)-5-methoxy-4-vinylphenyl)-6-((cyclopropylmethyl)carbamoyl)picolinate], the “AUC0-last hour (area under the curve)” value was “A (A = 0-1,000 ng/mL)”.
For `C=Cc1cc(C(=O)Nc2ccc(C(=N)NC(=O)OC[C@H]3OC[C@H](O)[C@@H]3O)cc2)c(-c2ccc(C(=O)NCC3CC3)nc2C(=O)OC(C)OC(=O)C(C)C)cc1OC` (stereo partly drawn) [Compound 98e, 1-(isobutyryloxy)ethyl 6-((cyclopropylmethyl)carbamoyl)-3-(2-((4-(N-((((2R,3S,4S)-3,4-dihydroxytetrahydrofuran-2-yl)methoxy)carbonyl)carbamimidoyl)phenyl)carbamoyl)-5-methoxy-4-vinylphenyl)picolinate], the “AUC0-last hour (area under the curve)” value was “A (A = 0-1,000 ng/mL)”.
For `C=Cc1cc(C(=O)Nc2ccc(C(=N)NC(=O)OC[C@H]3NC[C@H](O)[C@@H]3O)cc2)c(-c2ccc(C(=O)NCC3CC3)nc2C(=O)OC(C)OC(=O)OC(C)C)cc1OC` (stereo partly drawn) [Compound 99e, 1-((isopropoxycarbonyl)oxy)ethyl 6-((cyclopropylmethyl)carbamoyl)-3-(2-((4-(N-((((2R,3R,4S)-3,4-dihydroxypyrrolidin-2-yl)methoxy)carbonyl)carbamimidoyl)phenyl)carbamoyl)-5-methoxy-4-vinylphenyl)picolinate], the “AUC0-last hour (area under the curve)” value was “A (A = 0-1,000 ng/mL)”.
For `C=Cc1cc(C(=O)Nc2ccc(C(=N)NC(=O)OCCCCCC)cc2)c(-c2ccc(C(=O)NCC3CC3)nc2C(=O)OC(C)OC(=O)OC(C)CO)cc1OC` (stereo not drawn) [Compound 100e, 1-((((1-hydroxypropan-2-yl)oxy)carbonyl)oxy)ethyl 6-((cyclopropylmethyl)carbamoyl)-3-(2-((4-(N-((hexyloxy)carbonyl)carbamimidoyl)phenyl)carbamoyl)-5-methoxy-4-vinylphenyl)picolinate], the “AUC0-last hour (area under the curve)” value was “B (B = 1,001-10,000 ng/mL)”.
For `C=Cc1cc(C(=O)Nc2ccc(C(=N)NC(=O)OCCOC(=O)[C@@H](N)C(C)C)cc2)c(-c2ccc(C(=O)NCC3CC3)nc2C(=O)OC(C)OC(=O)C(C)C)cc1OC` (stereo partly drawn) [Compound 101e, 1-(isobutyryloxy)ethyl 3-(2-((4-(N-((2-(((S)-2-amino-3-methylbutanoyl)oxy)ethoxy)carbonyl)carbamimidoyl)phenyl)carbamoyl)-5-methoxy-4-vinylphenyl)-6-((cyclopropylmethyl)carbamoyl)picolinate], the “AUC0-last hour (area under the curve)” value was “A (A = 0-1,000 ng/mL)”.
In the case of `C=Cc1cc(C(=O)Nc2ccc(C(=N)NC(=O)OCCCCCN)cc2)c(-c2ccc(C(=O)NCC3CC3)nc2C(=O)OC(C)OC(=O)C(C)C)cc1OC` (stereo not drawn) [Compound 102d, 1-(isobutyryloxy)ethyl 3-(2-((4-(N-(((5-aminopentyl)oxy)carbonyl)carbamimidoyl)phenyl)carbamoyl)-5-methoxy-4-vinylphenyl)-6-((cyclopropylmethyl)carbamoyl)picolinate], the “AUC0-last hour (area under the curve)” value was “A (A = 0-1,000 ng/mL)”.
With `C=Cc1cc(C(=O)Nc2ccc(C(=N)NC(=O)OC[C@@H]3CCC(=O)N3)cc2)c(-c2ccc(C(=O)NCC3CC3)nc2C(=O)OC(C)OC(=O)C(C)C)cc1OC` (stereo partly drawn) [Compound 103c, 1-(isobutyryloxy)ethyl 6-((cyclopropylmethyl)carbamoyl)-3-(5-methoxy-2-((4-(N—((((S)-5-oxopyrrolidin-2-yl)methoxy)carbonyl)carbamimidoyl)phenyl)carbamoyl)-4-vinylphenyl)picolinate] the “AUC0-last hour (area under the curve)” value was “A (A = 0-1,000 ng/mL)”.
With `C=Cc1cc(C(=O)Nc2ccc(C(=N)NC(=O)OC(C)COC(=O)CCCC[C@H]3SCC4NC(=O)NC43)cc2)c(-c2ccc(C(=O)NCC3CC3)nc2C(=O)OC(C)OC(=O)OC(C)C)cc1OC` (stereo partly drawn) [Compound 104b, 1-((isopropoxycarbonyl)oxy)ethyl 6-((cyclopropylmethyl)carbamoyl)-3-(5-methoxy-2-((4-(N-(((1-((5-((4R)-2-oxohexahydro-1H-thieno[3,4-d]imidazol-4-yl)pentanoyl)oxy)propan-2-yl)oxy)carbonyl)carbamimidoyl)phenyl)carbamoyl)-4-vinylphenyl)picolinate] the “AUC0-last hour (area under the curve)” value was “A (A = 0-1,000 ng/mL)”.
With `C=Cc1cc(C(=O)Nc2ccc(C(=N)NC(=O)OCc3oc(=O)oc3C)cc2)c(-c2ccc(C(=O)NCC3CC3)nc2C(=O)OC(C)OC(=O)C(C)C)cc1OC` (stereo not drawn) [Compound 117b, 1-(isobutyryloxy)ethyl 6-((cyclopropylmethyl)carbamoyl)-3-(5-methoxy-2-((4-(N-(((5-methyl-2-oxo-1,3-dioxol-4-yl)methoxy)carbonyl)carbamimidoyl)phenyl)carbamoyl)-4-vinylphenyl)picolinate] the “AUC0-last hour (area under the curve)” value was “B (B = 1,001-10,000 ng/mL)”.
With `C=Cc1cc(C(=O)Nc2ccc(C(=N)NC(=O)OCc3oc(=O)oc3C)cc2)c(-c2ccc(C(=O)NCC3CC3)nc2C(=O)OCOC(=O)[C@@H](N)C(C)C)cc1OC` [Compound 118c, (S)-((2-amino-3-methylbutanoyl)oxy)methyl 6-((cyclopropylmethyl)carbamoyl)-3-(5-methoxy-2-((4-(N-(((5-methyl-2-oxo-1,3-dioxol-4-yl)methoxy)carbonyl)carbamimidoyl)phenyl)carbamoyl)-4-vinylphenyl)picolinate] the “AUC0-last hour (area under the curve)” value was “A (A = 0-1,000 ng/mL)”.
